How the values were obtained:
[1] = target: Tyrosine-protein kinase SYK (Homo sapiens, UniProt P43405); test: Inhibition of SYK (unknown origin)
[2] = Intrinsic clearance in human liver microsomes; format: ADME, Microsome; settings: read-out: CLH
[3] = target: Voltage-gated inwardly rectifying potassium channel KCNH2 (Homo sapiens, UniProt Q12809); test: Inhibition of human ERG assessed as tail current by plate-based planar patch clamp assay
[4] = tested on: SUD4; test: Growth inhibition of human SU-DHL-4 cells after 72 hrs; format: functional
[5] = Lipophilicity, logD of compound in buffer:octanol (100:1) at pH 7.4 by shake flask method; format: physicochemical
[6] = Intrinsic clearance in rat hepatocytes measured per million cells; format: ADME, cell-based, Hepatocyte; settings: read-out: CLH
[7] = Volume of distribution at steady state in Han Wistar rat at 2 umol/kg, po and 1 umol/kg, iv; format: ADME, organism-based; settings: in vivo, dose 1 µmol/kg, read-out: Vdss
[8] = Clearance in Han Wistar rat at 2 umol/kg, po and 1 umol/kg, iv; format: ADME, organism-based; settings: in vivo, dose 1 µmol/kg
[9] = Protein binding in Han Wistar rat plasma assessed as unbound fraction; format: ADME, cell-free
[10] = Oral bioavailability in Han Wistar rat at 2 umol/kg; format: ADME, organism-based; settings: in vivo, at 2 µmol/kg
[11] = Dissociation constant, pKa of the compound; format: physicochemical
[12] = Intrinsic clearance in dog hepatocytes measured per million cells; format: ADME, cell-based, Canis lupus familiaris, Hepatocyte; settings: read-out: CLH
[13] = Oral bioavailability in Beagle dog at 2 umol/kg; format: ADME, organism-based, Canis lupus familiaris; settings: in vivo, at 2 µmol/kg
[14] = Clearance in Beagle dog at 2 umol/kg, po and 1 umol/kg, iv; format: ADME, organism-based, Canis lupus familiaris; settings: in vivo, dose 2 µmol/kg
[15] = Clearance in Beagle dog at 2 umol/kg, po and 1 umol/kg, iv relative to hepatic blood flow; format: ADME, organism-based, Canis lupus familiaris; settings: in vivo, at 2 µmol/kg
[16] = Volume of distribution at steady state in Beagle dog at 2 umol/kg, po and 1 umol/kg, iv; format: ADME, organism-based, Canis lupus familiaris; settings: in vivo, dose 2 µmol/kg, read-out: Vdss
[17] = Protein binding in Beagle dog plasma assessed as unbound fraction; format: ADME, cell-free, Canis lupus familiaris

Sequence of Voltage-gated inwardly rectifying potassium channel KCNH2 (Q12809 whole entry): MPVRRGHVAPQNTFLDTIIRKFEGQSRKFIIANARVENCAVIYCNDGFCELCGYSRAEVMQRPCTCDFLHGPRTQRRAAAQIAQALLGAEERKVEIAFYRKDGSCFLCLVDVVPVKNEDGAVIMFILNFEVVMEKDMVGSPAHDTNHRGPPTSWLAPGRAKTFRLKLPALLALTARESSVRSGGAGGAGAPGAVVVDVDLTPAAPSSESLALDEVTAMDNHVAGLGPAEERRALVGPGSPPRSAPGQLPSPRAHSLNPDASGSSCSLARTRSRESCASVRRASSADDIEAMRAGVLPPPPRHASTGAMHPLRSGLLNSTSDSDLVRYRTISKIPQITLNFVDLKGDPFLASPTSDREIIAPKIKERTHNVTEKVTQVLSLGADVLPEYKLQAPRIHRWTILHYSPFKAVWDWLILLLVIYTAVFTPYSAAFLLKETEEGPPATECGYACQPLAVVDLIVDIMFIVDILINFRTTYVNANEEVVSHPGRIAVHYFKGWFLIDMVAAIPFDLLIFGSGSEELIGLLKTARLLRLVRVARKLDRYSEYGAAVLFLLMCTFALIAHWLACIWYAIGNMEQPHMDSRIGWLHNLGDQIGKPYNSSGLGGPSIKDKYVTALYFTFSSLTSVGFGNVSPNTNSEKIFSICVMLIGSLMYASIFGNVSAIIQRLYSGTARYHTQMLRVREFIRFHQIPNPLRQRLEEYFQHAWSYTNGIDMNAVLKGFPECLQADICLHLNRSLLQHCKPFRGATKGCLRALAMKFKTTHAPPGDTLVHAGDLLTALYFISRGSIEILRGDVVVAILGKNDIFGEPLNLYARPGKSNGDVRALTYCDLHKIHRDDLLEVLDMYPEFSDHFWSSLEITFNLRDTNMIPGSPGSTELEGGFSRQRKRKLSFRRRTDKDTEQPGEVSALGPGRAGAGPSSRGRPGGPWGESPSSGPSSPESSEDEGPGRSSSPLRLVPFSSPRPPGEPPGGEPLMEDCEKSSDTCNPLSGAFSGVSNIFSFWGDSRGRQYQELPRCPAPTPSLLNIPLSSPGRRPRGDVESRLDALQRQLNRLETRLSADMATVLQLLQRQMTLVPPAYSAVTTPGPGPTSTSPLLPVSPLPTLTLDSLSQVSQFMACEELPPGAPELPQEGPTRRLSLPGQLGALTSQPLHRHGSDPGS

Structure (SMILES)	IC50 [1] [nM]	microsomal CLint [2] [µL/min/mg]	logD [5]	hepatocyte CLint [6] [µL/min/1e6 cells]	IC50 [3] [nM]	GI50 [4] [nM]	other results
CNC(=O)c1nc(C)n2ccc(Nc3nccc(-n4cc(OCCN)cn4)n3)cc12	0.88	7	0.6	14	> 39000		
CNC(=O)c1nn(C)c2ccc(Nc3nccc(-n4cc(CN(C)C)c(C)n4)n3)cc12						240	
CNC(=O)c1nn(C)c2ccc(Nc3nccc(-n4cc(N[C@@H]5CCNC5)c(C)n4)n3)cc12	0.6	< 10	0.3	3	> 39000	170	Vd [7]: 13 L/kg; pKa [11]: 9.5; clearance [8]: 60 mL/min/kg; fraction unbound [9]: 0.24; bioavailability [10]: 0%
CNC(=O)c1nn(C)c2ccc(Nc3nccc(-n4cc(O[C@@H]5CCCNC5)c(C)n4)n3)cc12	0.19	8	1.7	9	2500	350	
CNC(=O)c1nn(C)c2ccc(Nc3nccc(-n4cc(N[C@@H]5CCCNC5)c(C)n4)n3)cc12	0.73	< 5	0.6	3	> 39000	300	Vd [7]: 19 L/kg; clearance [8]: 78 mL/min/kg; fraction unbound [9]: 0.33; bioavailability [10]: 0%
CNC(=O)c1nc(C)n2ccc(Nc3nccc(-n4cc(N[C@@H]5CCOC[C@@H]5N)cn4)n3)cc12		20	1.7	14	> 39000	260	
CNC(=O)c1nn(C)c2ccc(Nc3nccc(-n4cc(N[C@H]5CNC[C@@H]5F)c(C)n4)n3)cc12	0.3	28	1.7	8	19000	970	pKa [11]: 7.8
CNC(=O)c1nn(C)c2ccc(Nc3nccc(-n4cc(O[C@@H]5CCNC5)c(C)n4)n3)cc12	0.51	< 5	1.4	13	5200	510	
CNC(=O)c1nc(C)n2ccc(Nc3nccc(-n4cc(NCCN)cn4)n3)cc12	0.23	< 3		2	> 39000		
CNC(=O)c1nn(C)c2ccc(Nc3nccc(-n4cc(N[C@@H]5CCOC[C@@H]5N)cn4)n3)cc12	0.33	17	2.2	4	15000	220	Vd [7]: 9.8 L/kg; clearance [8]: 82 mL/min/kg; hepatocyte CLint [12]: < 1 µL/min/1e6 cells; bioavailability [13]: 2%; clearance [14]: 16 mL/min/kg; CL [15]: 40%; fraction unbound [9]: 0.28; Vd [16]: 5.7 L/kg; bioavailability [10]: 1.8%; fraction unbound [17]: 0.27
Cc1nn(-c2ccnc3[nH]c(-c4cccc5c4ccn5C)nc23)cc1CN(C)C		37					
CNC(=O)c1nc(C)n2ccc(Nc3nccc(-n4cc(CN(C)C)cn4)n3)cc12	0.24	20	1.3	13	7100	230	

Further lines, with some results ahead:

IC50 [1] [nM]	microsomal CLint [2] [µL/min/mg]	logD [5]	hepatocyte CLint [6] [µL/min/1e6 cells]	Structure (SMILES)	IC50 [3] [nM]	GI50 [4] [nM]	other results
0.2	129	3.1	17	Cc1nnc(-c2nn(C)c3ccc(Nc4nccc(-n5cc(N[C@@H]6CCOC[C@@H]6N)c(C)n5)n4)cc23)o1	11000	1300	
3.2	32	1.6	6	CNC(=O)c1nc(C)n2ccc(Nc3nccc(-n4cc(N[C@@H]5CCOC[C@@H]5N)c(C)n4)n3)cc12	> 39000	810	
0.34	32	1.6	8	CNC(=O)c1nn(C)c2ccc(Nc3nccc(-n4cc(N[C@@H]5CCOC[C@@H]5N)c(C)n4)n3)cc12		560	Vd [7]: 5.4 L/kg; clearance [8]: 76 mL/min/kg; fraction unbound [9]: 0.25; bioavailability [10]: 3.8%
1.5	8	0.7	< 1	CNC(=O)c1nn(C)c2ccc(Nc3nccc(-n4cc(NC5CNC5)c(C)n4)n3)cc12			
0.34	28	2.3	8	CNC(=O)c1nn(C)c2ccc(Nc3nccc(-n4cc(NCC5(N)CC5)c(C)n4)n3)cc12		2800	Vd [7]: 1.3 L/kg; clearance [8]: 13 mL/min/kg; fraction unbound [9]: 0.056; bioavailability [10]: 29%
1.3	< 3	1.9	13	CNC(=O)c1nn(C)c2ccc(Nc3nccc(-n4cc(OC5CNC5)c(C)n4)n3)cc12			
2.9				CNC(=O)c1nn(C)c2ccc(Nc3nccc(-n4cc(O[C@H]5CCNC5)c(C)n4)n3)cc12			
11				CNC(=O)c1nn(C)c2ccc(Nc3nccc(-n4cc(N[C@H]5CCNC5)c(C)n4)n3)cc12			
62				Cc1nn(-c2ccnc(Nc3ccc4c(c3)c(Cl)nn4C)n2)cc1N[C@@H]1CCOC[C@@H]1N			
7.9		2		CNC(=O)c1nn(C)c2ccc(Nc3nccc(-n4cc(N[C@@H]5CCN(C)C5)c(C)n4)n3)cc12			
0.4	44	2.9	25	CNC(=O)c1nn(C)c2ccc(Nc3nccc(-n4cc(O[C@H]5CNC[C@H]5F)c(C)n4)n3)cc12		1400	
0.22	71	2.4	8	Cc1nn(-c2ccnc(Nc3ccc4c(c3)c(C(=O)C(F)(F)F)cn4C)n2)cc1N[C@@H]1CCOC[C@@H]1N	4700		

— ChEMBL document CHEMBL4699472, “Novel potent and selective pyrazolylpyrimidine-based SYK inhibitors” (Bioorg Med Chem Lett, 2020)
